Experimental data published in patent US4552874A, “Pyrazolooxazines, pyrazolothiazines, and pryazoloquinolines and their use as medicaments” (Bayer Aktiengesellschaft, priority 1982, dated 1985).

What follows are compounds tested against T1, Lipoxygenase in platelet (Homo sapiens, UniProt P18054) (assay: Inhibition of lipoxygenase in washed human platelets (HETE synthesis from radioactively labelled arachidonic acid)). Conditions: in vitro.
T1 construct: the metabolism of radioactively labelled arachidonic acid on washed human platelets is used; endogenous in cells; host or cells: washed human platelets
T1 sequence (P18054 1-663): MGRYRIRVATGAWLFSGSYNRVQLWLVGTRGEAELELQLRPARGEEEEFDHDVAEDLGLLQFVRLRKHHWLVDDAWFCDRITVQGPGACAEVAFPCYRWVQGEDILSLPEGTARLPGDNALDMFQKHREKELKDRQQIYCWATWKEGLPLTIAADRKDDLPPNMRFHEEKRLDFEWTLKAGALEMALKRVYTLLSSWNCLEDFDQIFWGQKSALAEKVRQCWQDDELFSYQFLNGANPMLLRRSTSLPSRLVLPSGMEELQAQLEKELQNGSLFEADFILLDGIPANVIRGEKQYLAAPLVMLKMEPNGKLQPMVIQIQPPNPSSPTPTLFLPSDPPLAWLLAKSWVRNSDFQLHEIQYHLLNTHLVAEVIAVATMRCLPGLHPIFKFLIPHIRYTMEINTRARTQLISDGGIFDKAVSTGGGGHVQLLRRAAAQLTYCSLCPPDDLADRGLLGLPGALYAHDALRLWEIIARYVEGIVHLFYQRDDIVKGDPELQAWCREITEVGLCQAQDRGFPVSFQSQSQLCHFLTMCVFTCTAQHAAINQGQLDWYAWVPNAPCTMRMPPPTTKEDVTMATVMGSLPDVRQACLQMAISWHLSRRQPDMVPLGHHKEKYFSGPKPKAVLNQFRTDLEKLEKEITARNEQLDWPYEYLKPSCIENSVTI
Type: cell-based
Experimental: In this test method, the metabolism of radioactively labelled arachidonic acid on washed human platelets is used. In this in vitro test, the radioactively labelled metabolites are extracted from the reaction mixture and separated by thin-layer chromatography. The autoradiogram is evaluated on a thin-layer scanner. Under these test conditions, the labelled metabolites are separated from the unreacted arachidonic acid and can then be evaluated quantitatively. The distribution of radioactivity over the products of cyclooxygenase formed during the metabolism, thromboxane B2 (TXB2) and 12-hydroxy-5,8,10-heptadecatrienoic acid (HHT) and the product of lipoxygenase, 12-hydroxy-5,8,11,14-eicosatetraenoic acid (HETE), under the influence of the inhibitors provides a measure of the inhibition of the enzymes.
The inhibition of lipoxygenase by the compounds according to the invention can be measured by the inhibition of synthesis of HETE. It emerges that the synthesis of TXB2 and of HHT remains unaffected, whilst the conversion of arachidonic acid decreases. […] (Compare Table 1).

Row | Minimum concentration (g/ml) for inhibition of Lipoxygenase in platelet | Structure (SMILES)
1 | 10^-5 g/ml | CN(C)S(=O)(=O)c1ccc2c(c1)Oc1cn[nH]c1N2
2 | 10^-6 g/ml | Clc1ccc2c(c1)Nc1[nH]ncc1S2

What follows are compounds tested on Lipoxygenase in PMN Leucocytes (assay: Inhibition of lipoxygenase in PMN leucocytes (liberation of 5-HETE and leukotriene B4)). Conditions: in vitro.
Type: cell-based, humans and rabbits
Experimental: The polymorphonuclear leucocytes of humans and of rabbits metabolise arachidonic acid to 5-hydroxy-5,8,11,14-eicosatetraenoic acid (5-HETE) and leukotriene B4 (5S, 12R-dihydroxy-6 cis, 8,10-trans-14 cis-eicosatetraenoic acid). The inhibition of the liberation of 5-HETE and leukotriene B4 from the leucocytes provides a measure of the lipoxygenase-inhibitory effect of the compounds according to the invention. (Compare Table 1).
The test with human leucocytes is carried out by the method of Borgeat and Samuelsson (j. Biol. Chem. 254; 2643, 1979 and Proc. Natl. Acad. Sci. USA, 76, 2148 (1979), and with rabbit leucocytes by the method of Walker and Parish (Inter. Archs. Allergy appl. Immun. 66, 83, 1981).

Row | Structure (SMILES) | Minimum concentration (g/ml) for inhibition of Lipoxygenase in PMN Leucocytes
3 | CCN1c2cc(OCC(=O)OCc3ccccc3)ccc2Oc2cn(C)nc21 | 10^-5 g/ml
4 | CCN1c2cc(OCC(=O)O)ccc2Oc2cn(C)nc21 | 10^ -5 g/ml
5 | c1ccc2c(c1)Oc1cn[nH]c1N2CC1CCCCC1 | 10^-5 g/ml
6 | FC(F)(F)Sc1ccc2c(c1)Nc1[nH]ncc1O2 | < 10^-5 g/ml
7 | CCN1c2ccc(OC)cc2Oc2cn[nH]c21 | < 10^-5 g/ml
8 | COc1ccc2c(c1)N(C)c1[nH]ncc1O2 [drawing 47] | < 10^-6 g/ml
9 | CC(=O)n1cc2c(n1)N(C)c1ccccc1O2 [drawing 55] | > 10^-5 g/ml
10 | COc1ccc2c(c1)Oc1cn[nH]c1N2 | < 10^-6 g/ml
11 | Cc1ccc2c(c1)Nc1c(cnn1-c1ccccc1)S2 | 10^-5 g/ml
12 | c1c2c(cc3c1OCO3)Oc1cn[nH]c1N2 | < 10^-5 g/ml
13 | Cn1ncc2c1N(c1ccccc1)c1ccccc1C2 | > 10^-5 g/ml
14 | Cn1cc2c(n1)N(c1ccccc1)c1ccccc1C2 | > 10^-5 g/ml
15 | c1ccc2c(c1)Oc1cn[nH]c1N2C1CCCCC1 [drawing 56] | 10^ -6 g/ml
16 | CCN1c2cc(OC)ccc2Oc2cnn(C)c21 [Compound 50] | 10^-5 g/ml
17 | c1ccc(CN2c3ccccc3Oc3cn[nH]c32)cc1 | 10^-6 g/ml
18 | FC(F)(F)c1ccc2c(c1)Nc1[nH]ncc1O2 | < 10^-5 g/ml
19 | CN1c2cc(OCc3ccccc3)ccc2Oc2cn[nH]c21 | < 10^-5 g/ml
20 | c1ccc(N2c3ccccc3Cc3cn[nH]c32)cc1 | > 10^-5 g/ml
21 | CN1c2ccccc2Cc2cn(C(=O)OCc3ccccc3)nc21 | > 10^-5 g/ml
22 | O=C(O)Cn1cc2c(n1)N(C1CCCCC1)c1ccccc1O2 [Compound 40, 9-Cyclohexylpyrazolo[4,3-b][1,4]benzoxazine-2-acetic acid] | > 10^-5 g/ml
23 | CN1c2ccccc2Oc2cn(Cc3ccc(Cl)c(Cl)c3)nc21 | > 10^-5 g/ml
24 | CC(C)N1c2ccccc2Oc2cn[nH]c21 | < 10^-6 g/ml
25 | Cn1cc2c(n1)N(Cc1ccccc1)c1ccccc1O2 [Compound 60] | > 10^-5 g/ml
26 | CN1c2ccccc2Cc2cn(C)nc21 | > 10^-5 g/ml
27 | CCCCOc1ccc2c(c1)N(C)c1[nH]ncc1O2 [Compound 70] | < 10^-5 g/ml
28 | CC(=O)n1cc2c(n1)N(C)c1ccccc1S2 | > 10^-5 g/ml

Row | Structure (SMILES) | Minimum concentration (g/ml) for inhibition of Lipoxygenase in PMN Leucocytes
29 | c1ccc(N2c3ccccc3Oc3cn[nH]c32)cc1 | 10^-5 g/ml
30 | CCOC(=O)Cn1cc2c(n1)N(C1CCCCC1)c1ccccc1O2 [drawing 50] | > 10^-5 g/ml
31 | CCN1c2cc(O)ccc2Oc2cn(C)nc21 | < 10^-5 g/ml
32 | CN1c2ccccc2Cc2cnn(C(=O)c3ccc(Cl)cc3)c21 | > 10^-5 g/ml
33 | COc1ccc2c(c1)Nc1[nH]ncc1O2 | < 10^-6 g/ml
34 | COc1ccc2c(c1)N(C)c1nn(C)cc1O2 | > 10^-5 g/ml
35 | COc1ccc2c(c1)Oc1cnn(C)c1N2C | > 10^-5 g/ml
36 | Cn1cc2c(n1)N(CC1CCCCC1)c1ccccc1O2 | > 10^-5 g/ml
37 | CN1c2ccccc2Oc2cn(C(=O)c3ccccn3)nc21 [drawing 53] | > 10^-5 g/ml
38 | OCCN1c2ccccc2Oc2cn[nH]c21 | < 10^-5 g/ml
39 | c1ccc2c(c1)Oc1cn[nH]c1N2C1CCCCC1 [drawing 59] | > 10^-6 g/ml
40 | CN1c2ccccc2Oc2cn(CCOc3ccc4ccccc4c3)nc21 | > 10^-5 g/ml
41 | CC(C)N1c2ccccc2Oc2cn(C)nc21 | > 10^-5 g/ml
42 | Clc1cc(Cl)c2c(c1)Nc1[nH]ncc1O2 | 10^-6 g/ml
43 | CCOC(=O)CN1c2ccccc2Oc2cn[nH]c21 | > 10^-5 g/ml
44 | COc1ccc2c(c1)Nc1c(cnn1C(C)=O)O2 | 10^-5 g/ml
45 | CN1c2ccccc2Cc2cnn(-c3ccccc3)c21 | > 10^-5 g/ml
46 | COc1ccc2c(c1)Oc1cn[nH]c1N2C | < 10^-5 g/ml
47 | Oc1ccc2c(c1)Nc1[nH]ncc1O2 | < 10^-6 g/ml
48 | CN1c2ccccc2Oc2cn(CCO)nc21 | > 10^-5 g/ml
49 | CN1c2cc(SC(F)(F)F)ccc2Oc2cn[nH]c21 [Compound 71] | < 10^-5 g/ml
50 | CN1c2nn(C)cc2Cc2cccc(Br)c21 [Compound 30] | 10^-5 g/ml
51 | c1ccc(COCCN2c3ccccc3Oc3cn[nH]c32)cc1 | 10^-5 g/ml
52 | CCN1c2cc(OC)ccc2Oc2cn[nH]c21 | < 10^-6 g/ml
53 | CC(=O)n1cc2c(n1)N(C)c1ccccc1C2 [drawing 38] | > 10^-5 g/ml
54 | CCN1c2cc(OC)ccc2Oc2cnn(C)c21 [drawing 49] | 10^-6 g/ml

What follows are compounds tested on carrageenan oedema (assay: Inhibition of carrageenan oedema formation). Conditions: rat, oral administration of 25 mg/kg.
Type: in vivo
Source text: The compounds according to the invention are also active in vivo. […] The compounds according to the invention also reduce the formation of oedema in the model of carrageenan inflammation, (compare Table 3) and inhibit the formation of metastases from B-16 melanoma (method of Honn, et. al. Science 212, 1270, 1981).

Row | Structure (SMILES) | inhibition in vivo at 25 mg/kg
55 | CN1c2ccccc2Oc2cn[nH]c21 [Compound 10] | 73.4%
56 | O=C(O)Cn1cc2c(n1)N(C1CCCCC1)c1ccccc1O2 [Compound 40, 9-Cyclohexylpyrazolo[4,3-b][1,4]benzoxazine-2-acetic acid] | 44%
57 | O=S1(=O)c2ccccc2Nc2[nH]ncc21 [Compound 16] | 45.4%
58 | CC(=O)n1cc2c(n1)N(C)c1ccccc1C2 [Compound 27] | 62.4%
59 | Cc1ccc2c(c1)Nc1[nH]ncc1O2 [Compound 3] | 41.4%
60 | CC(=O)n1cc2c(n1)N(C)c1ccccc1O2 [Compound 44, 2-Acetyl-9-methylpyrazolo[4,3-b][1,4]benzoxazine] | 70%
61 | COc1ccc2c(c1)N(C)c1[nH]ncc1O2 [Compound 36] | 60%
62 | c1ccc(-n2ncc3c2Nc2ccccc2O3)cc1 [Compound 9] | 75.1%
63 | Clc1ccc2c(c1)Nc1[nH]ncc1O2 [Compound 2] | 57.8%
64 | CN1c2ccccc2Oc2cn(C(=O)c3ccccn3)nc21 [Compound 42] | 67.3%
65 | CCOC(=O)Cn1cc2c(n1)N(C1CCCCC1)c1ccccc1O2 [Compound 39, Ethyl (9-cyclohexylpyrazolo[4,3-b][1,4]benzoxazin-2-yl) acetate] | 47.5%
